From ChEMBL document CHEMBL4229381, “New cytokinin derivatives possess UVA and UVB photoprotective effect on human skin cells and prevent oxidative stress” (Eur J Med Chem, 2018)
The source made the active and inactive calls. The calls are words filed in the database; no cut-off is given here.

What was measured:
[1] = tested on: HaCaT; test: Cytotoxicity in human HaCaT cells assessed as reduction in cell viability at 50 uM after 24 hrs by resazurin dye-based fluorescence assay relative to control
[2] = Stability of the compound in pH 5 solution at 10^-4 M after 1 hr by HPLC analysis; format: physicochemical; conditions: read-out: Stability
[3] = Stability of the compound in pH 4 solution at 10^-4 M after 1 hr by HPLC analysis; format: physicochemical; conditions: read-out: Stability
[4] = Stability of the compound in pH 5 solution at 10^-4 M after 24 hrs by HPLC analysis; format: physicochemical; conditions: read-out: Stability
[5] = Stability of the compound in pH 4 solution at 10^-4 M after 24 hrs by HPLC analysis; format: physicochemical; conditions: read-out: Stability
[6] = tested on: BJ; test: Cytotoxicity in human BJ cells assessed as reduction in cell viability at 50 uM after 24 hrs by resazurin dye-based fluorescence assay relative to control
[7] = Cytotoxicity in human NHDF cells assessed as cell viability at 3.9 uM after 24 hrs by neutral red uptake assay relative to control; format: cell-based; conditions: read-out: Activity
[8] = Cytotoxicity in human NHDF cells assessed as cell viability at 7.8 uM after 24 hrs by neutral red uptake assay relative to control; format: cell-based; conditions: read-out: Activity
[9] = Cytotoxicity in human NHDF cells assessed as cell viability at 15.6 uM after 24 hrs by neutral red uptake assay relative to control; format: cell-based; conditions: read-out: Activity
[10] = Cytotoxicity in human NHDF cells assessed as cell viability at 31.3 uM after 24 hrs by neutral red uptake assay relative to control; format: cell-based; conditions: read-out: Activity
[11] = Cytotoxicity in human NHDF cells assessed as cell viability at 62.5 uM after 24 hrs by neutral red uptake assay relative to control; format: cell-based; conditions: read-out: Activity
[12] = Cytotoxicity in human NHDF cells assessed as cell viability at 125 uM after 24 hrs by neutral red uptake assay relative to control; format: cell-based; conditions: read-out: Activity
[13] = Phototoxicity in human NHDF cells assessed as cell viability at 3.9 uM preincubated for 60 mins followed by 5 J/cm2 UVA irradiation and measured after 24 hrs by neutral red uptake assay relative to control; format: cell-based; conditions: read-out: Activity
[14] = Phototoxicity in human NHDF cells assessed as cell viability at 15.6 uM preincubated for 60 mins followed by 5 J/cm2 UVA irradiation and measured after 24 hrs by neutral red uptake assay relative to control; format: cell-based; conditions: read-out: Activity
[15] = Phototoxicity in human NHDF cells assessed as cell viability at 31.3 uM preincubated for 60 mins followed by 5 J/cm2 UVA irradiation and measured after 24 hrs by neutral red uptake assay relative to control; format: cell-based; conditions: read-out: Activity
[16] = Cytotoxicity in human HaCaT cells assessed as cell viability at 3.9 uM after 24 hrs by neutral red uptake assay relative to control; format: cell-based; conditions: read-out: Activity
[17] = Cytotoxicity in human HaCaT cells assessed as cell viability at 7.8 uM after 24 hrs by neutral red uptake assay relative to control; format: cell-based; conditions: read-out: Activity
[18] = Cytotoxicity in human HaCaT cells assessed as cell viability at 15.6 uM after 24 hrs by neutral red uptake assay relative to control; format: cell-based; conditions: read-out: Activity
[19] = Cytotoxicity in human HaCaT cells assessed as cell viability at 62.5 uM after 24 hrs by neutral red uptake assay relative to control; format: cell-based; conditions: read-out: Activity
[20] = Cytotoxicity in human HaCaT cells assessed as cell viability at 125 uM after 24 hrs by neutral red uptake assay relative to control; format: cell-based; conditions: read-out: Activity
[21] = Phototoxicity in human HaCaT cells assessed as cell viability at 3.9 uM preincubated for 60 mins followed by 7.5 J/cm2 UVA irradiation and measured after 24 hrs by neutral red uptake assay relative to control; format: cell-based; conditions: read-out: Activity
[22] = Phototoxicity in human HaCaT cells assessed as cell viability at 7.8 uM preincubated for 60 mins followed by 7.5 J/cm2 UVA irradiation and measured after 24 hrs by neutral red uptake assay relative to control; format: cell-based; conditions: read-out: Activity
[23] = Phototoxicity in human HaCaT cells assessed as cell viability at 15.6 uM preincubated for 60 mins followed by 7.5 J/cm2 UVA irradiation and measured after 24 hrs by neutral red uptake assay relative to control; format: cell-based; conditions: read-out: Activity
[24] = Phototoxicity in human HaCaT cells assessed as cell viability at 31.3 uM preincubated for 60 mins followed by 7.5 J/cm2 UVA irradiation and measured after 24 hrs by neutral red uptake assay relative to control; format: cell-based; conditions: read-out: Activity
[25] = Phototoxicity in human HaCaT cells assessed as cell viability at 62.5 uM preincubated for 60 mins followed by 7.5 J/cm2 UVA irradiation and measured after 24 hrs by neutral red uptake assay relative to control; format: cell-based; conditions: read-out: Activity
[26] = Phototoxicity in human HaCaT cells assessed as cell viability at 125 uM preincubated for 60 mins followed by 7.5 J/cm2 UVA irradiation and measured after 24 hrs by neutral red uptake assay relative to control; format: cell-based; conditions: read-out: Activity
[27] = tested on: NHDF; test: Cytoprotection against phototoxicity in human NHDF cells assessed as increase in cell viability at 3.9 to 31.3 uM preincubated for 60 mins followed by 7.5 J/cm2 UVA irradiation and measured after 24 hrs by neutral red uptake assay; format: functional, cell-based
[28] = tested on: NHDF; test: Cytoprotection against phototoxicity in human NHDF cells assessed as increase in cell viability at 3.9 uM preincubated for 60 mins followed by 7.5 J/cm2 UVA irradiation and measured after 24 hrs by neutral red uptake assay; format: functional, cell-based
[29] = tested on: NHDF; test: Cytoprotection against phototoxicity in human NHDF cells assessed as increase in cell viability at 31.3 uM preincubated for 60 mins followed by 150 mJ/cm2 UVB irradiation and measured after 24 hrs by neutral red uptake assay; format: functional, cell-based
[30] = tested on: NHDF; test: Cytoprotection against phototoxicity in human NHDF cells assessed as increase in cell viability at 3.9 to 31.3 uM preincubated for 60 mins followed by 150 mJ/cm2 UVB irradiation and measured after 24 hrs by neutral red uptake assay; format: functional, cell-based
[31] = tested on: HaCaT; test: Potency index, ratio of compound effect to rosmarinic acid effect for cytoprotection against phototoxicity in human HaCaT cells assessed as increase in cell viability at 3.9 uM preincubated for 60 mins followed by 150 mJ/cm2 UVB irradiation and measured after 24 hrs by neutral red uptake assay; format: functional
[32] = tested on: HaCaT; test: Potency index, ratio of compound effect to rosmarinic acid effect for cytoprotection against phototoxicity in human HaCaT cells assessed as increase in cell viability at 3.9 uM preincubated for 60 mins followed by 10 J/cm2 UVA irradiation and measured after 24 hrs by neutral red uptake assay; format: functional
[33] = tested on: Triticum aestivum; test: Anti-senescent activity in leaf of Triticum aestivum cv. Hereward seedlings by measuring chlorophyll retention at 10^-4 mol/L after 4 days relative to control; format: functional
[34] = tested on: Caenorhabditis elegans; test: Protection against juglone-induced oxidative stress in wild type Caenorhabditis elegans N2 at 100 uM preincubated for 3 days followed by juglone addition and measured after 4 hrs by inverted microscopic analysis; format: functional, organism-based
[35] = tested on: Caenorhabditis elegans; test: Protection against juglone-induced oxidative stress in Caenorhabditis elegans BA17 (fem-1) at 100 uM preincubated for 3 days followed by juglone addition measured every hour for 12 ro 14 hrs by inverted microscopic analysis; format: functional, organism-based
[36] = tested on: HaCaT; test: Potency index, ratio […] for cytoprotection against phototoxicity in human HaCaT cells assessed as increase in cell viability at 3.9 preincubated for 60 mins followed by 150 mJ/cm2 UVB irradiation and measured after 24 hrs by neutral red uptake assay; format: functional

c1csc(CNc2ncnc3c2ncn3C2CCCO2)c1 (stereo unspecified)
Activity [1]: < 10% | remaining at 1 h, 100 µM [2]: 100% | remaining at 1 h, 100 µM [3]: 99.4% | remaining at 24 h, 100 µM [4]: 94.2% | remaining at 24 h, 100 µM [5]: 52.1% | Activity [6]: < 10% | viability at 24 h, 3.9 µM [7]: 100% | viability at 24 h, 7.8 µM [8]: 103% | viability at 24 h, 15.6 µM [9]: 100% | viability at 24 h, 31.3 µM [10]: 107% | viability at 24 h, 62.5 µM [11]: 108% | viability at 24 h, 125 µM [12]: 108% | viability at 24 h, 3.9 µM [13]: 98% | viability at 24 h, 15.6 µM [14]: 101% | viability at 24 h, 31.3 µM [15]: 106% | viability at 24 h, 3.9 µM [16]: 101% | viability at 24 h, 7.8 µM [17]: 101% | viability at 24 h, 15.6 µM [18]: 100% | viability at 24 h, 62.5 µM [19]: 104% | viability at 24 h, 125 µM [20]: 103% | viability at 24 h, 3.9 µM [21]: 123% | viability at 24 h, 7.8 µM [22]: 124% | viability at 24 h, 15.6 µM [23]: 121% | viability at 24 h, 31.3 µM [24]: 128% | viability at 24 h, 62.5 µM [25]: 130% | viability at 24 h, 125 µM [26]: 127% | Activity [27]: Active | Activity [28]: Active | Activity [29]: Active | Activity [30]: Active | Ratio [31]: >2 | Ratio [32]: 3 | Activity [33]: 102% | Activity [34]: Active | Activity [35]: Active | Ratio [36]: >2
